Data on 2 molecules can be found in patent publication US9585871B2, “Method for treating and curing leishmaniosis using fexinidazole” (Merial Limited, priority 2013, dated 2017).

Series [1] concerns Leishmania donovani amastigotes grown in macrophages. The conditions noted are these: Wyllie S et al., 2012; cited from earlier work.
Series [2] is described as follows: Multiple dosing study in dogs: systemic exposure (plasma) to fexinidazole and its metabolites. The format is in vivo, dog. The conditions noted are these: dog, in vivo, po, 800 mg/kg/day. As to the method:
In an embodiment, the fexinidazole may be administered to the canine as an aqueous oral suspension, comprising 5% TWEEN 80 and 0.5% Methyl cellulose 400 cP (METHOCEL). Provided in this format, fexinidazole suspensions of 5, 20, and 80 mg fexinidazole/mL may be prepared such that 10 mL of each concentration contains 50, 200, and 800 mg fexinidazole, respectively.
Moreover, inventors expect that a wide variety of dosing regimens are now available to the skilled person to achieve the necessary and sufficient fexinidazole plasma levels. For example, and as further outlined in the Examples below, any dosing regimen that produces substantially similar fexinidazole plasma levels, as compared to those levels produced by giving the dogs about 60 mg/kg/day for about twenty-eight days, is expected to substantially or completely eliminate the Leishmania parasites. Table 1 presents the systemic fexinidazole exposure following dosing of dogs with 50, 200, and 800 mg/kg/day.

SMILES strings stand for the structures.

With `Cn1c([N+](=O)[O-])cnc1COc1ccc(S(C)(=O)=O)cc1` [sulfone metabolite], in series [1], the “activity against Leishmania donovani amastigotes grown in macrophages” value is reported as “active”.
With `Cn1c([N+](=O)[O-])cnc1COc1ccc([S+](C)[O-])cc1` (stereo not drawn) [sulfoxide metabolite], the AUC0-24 in series [2] is 74.3 ± 14.4^(1) μg · hour/mL. The “activity against Leishmania donovani amastigotes grown in macrophages” value in series [1] is on record as “active”.
